Data on six molecules can be found in US9737535B2, “Methods for treating cancer using TOR kinase inhibitor combination therapy comprising administering substituted pyrazino[2,3-b]pyrazines” (Signal Pharmaceuticals, LLC, priority 2014, dated 2017).

The subject of test [1] is caspase 3/7 activation in NCI-H441 cells. The experiment in a line: Caspase-Glo 3/7 assay. The test is classed as cell-based. Particulars: 24 hours post-treatment, normalized to DMSO control, combination at 1:1. As for the experimental part:
Cell lines were maintained in the growth medium recommended by ATCC (American Type Culture Collection). […] The compounds were serially diluted in DMSO from the highest concentration of 30 μM (single compounds and in combination with constant a constant ratio of 1:1). […] The percentage of induction of apoptosis was normalized to DMSO control (no compound).

In test [2] the test system is cancer cell lines (T47D, MCF, MDA-MM468, HCC-70, SKBR-3, MM-453). Nature of the test: Anti-proliferation assay with +JQ1, cancer cell lines overall. The test is classed as cell-based. Particulars: treatment with +JQ1. As for the experimental part:
(§1) Cells were grown, treated and analyzed as described above, and synergy was calculated using the Chalice Software (Zalicus, Inc., Cambridge Mass.), described above. Cell lines used included T47D (human ductal breast epithelial tumor cell line), MCF (adenocarcinoma breast cancer cell line), MDA-MM468 (adenocarcinoma breast cancer cell line), HCC-70 (carcinoma, ductal breast cancer cell line), SKBR-3 (adenocarcinoma breast cancer cell line), MM-453 (adenocarcinoma breast cancer cell line).

The subject of test [3] is T47-D. Nature of the test: Anti-proliferation assay with +JQ1, Chalice synergy score. The test is classed as cell-based, human. Conditions: combination with +JQ1, average. As for the experimental part: (§2) Cells were thawed from a liquid nitrogen preserved state.
(§3) The calculation for synergy score is provided below.
(§4) If T≧V0:100*[1−(T−V0)/(V−V0)]
as §1

Test [4] concerns HCC-70. The description is as above. Type of test: cell-based. Conditions: combination with +JQ1, average. As for the experimental part: as §2, §3, §4, §1
The test system of test [5] is MM-468. The description is as above. Type of test: cell-based. Conditions: combination with +JQ1, average. As for the experimental part:
as §2, §3, §4, §1

In test [6] the test system is MCF-7. The test is described as above. Type of test: cell-based. Particulars: combination with +JQ1, average. As to the method: as §2, §3, §4, §1
Test [7] deals with MM-453. Described as above. The test is classed as cell-based. Particulars: combination with +JQ1, average. As for the experimental part: as §2, §3, §4, §1
Test [8] concerns SKBR-3. Described as above. Type of test: cell-based. Particulars: combination with +JQ1, average. As to the method:
as §2, §3, §4, §1

Test [9] relates to breast cancer cell line panel. The experiment in a line: Anti-proliferation assay, seventeen breast cancer cell line panel. The test is classed as cell-based. Particulars: single agent, cell lines where the GI50 reached inhibition levels of greater than fifty percent, read-out: median GI50. The source says:
Cells were thawed from a liquid nitrogen preserved state. […] After seventy-two hours, […] developed for endpoint analysis using ATPLite. […] The calculation for synergy score is provided below. […] Compound 1 had varying activity across the seventeen cell line panel.

Test [10] has as its system HCC-1187. Nature of the test: Anti-proliferation assay (ATPLite), Chalice synergy score. The test is classed as cell-based. The arrangement: scale not given here. Particulars: Compound 1 in combination with the named second active agent, 72 h, mean of n = 3 experiments in triplicate.
From the text: as §2, §3, §4

Test [11] deals with HCC-1500. The test is described as above. Particulars: Compound 1 in combination with the named second active agent, 72 h, mean of n = 3 experiments in triplicate. The test is classed as cell-based. The arrangement: scale not given here.
From the text: as §2, §3, §4

The test system of test [12] is BT-20. The test is described as above. The arrangement: scale not given here. Particulars: Compound 1 in combination with the named second active agent, 72 h, mean of n = 3 experiments in triplicate. The test is classed as cell-based.
From the text: as §2, §3, §4

Test [13] deals with MDA-MB-231. The test is described as above. Type of test: cell-based. Particulars: Compound 1 in combination with second active agent, mean self-cross + 2σ threshold 2.61.
From the text: as §2, §3, §4

Test [14] relates to MDA-MB-468. The description is as above. The test is classed as cell-based. Particulars: Compound 1 in combination with second active agent, mean self-cross + 2σ threshold 4.66.
From the text: as §2, §3, §4

The subject of test [15] is MDA-MB-436. The test is described as above. The test is classed as cell-based. Particulars: Compound 1 in combination with second active agent, mean self-cross + 2σ threshold 1.91.
From the text: as §2, §3, §4

The subject of test [16] is HCC-1937. Described as above. Type of test: cell-based. Particulars: Compound 1 in combination with the named second active agent, 72 h, mean of n = 3 experiments in triplicate.
From the text: as §2, §3, §4

Test [17] has as its system HCC-1428. The test is described as above. The test is classed as cell-based. Particulars: Compound 1 in combination with the named second active agent, 72 h, mean of n = 3 experiments in triplicate.
From the text: as §2, §3, §4

Test [18] deals with BT-474. The description is as above. Type of test: cell-based. Conditions: Compound 1 in combination with the named second active agent, 72 h, mean of n = 3 experiments in triplicate.
From the text: as §2, §3, §4

The test system of test [19] is HCC70. The description is as above. Type of test: cell-based. Conditions: Compound 1 in combination with second active agent; HCC-70; mean self-cross + 2σ threshold 3.45.
From the text: as §2, §3, §4

In test [20] the test system is MCF7. Described as above. Type of test: cell-based. Particulars: Compound 1 in combination with second active agent, mean self-cross + 2σ threshold 3.07.
From the text: as §2, §3, §4

Test [21] relates to BT-549. The description is as above. Particulars: Compound 1 in combination with the named second active agent, 72 h, mean of n = 3 experiments in triplicate. The test is classed as cell-based.
From the text: as §2, §3, §4

The subject of test [22] is HCC-1806. The test is described as above. Type of test: cell-based. Particulars: Compound 1 in combination with the named second active agent, 72 h, mean of n = 3 experiments in triplicate.
From the text: as §2, §3, §4

The subject of test [23] is Hs-578-T. The test is described as above. The test is classed as cell-based. Conditions: Compound 1 in combination with second active agent, mean self-cross + 2σ threshold 4.09.
From the text: as §2, §3, §4

Test [24] has as its system MDA-MB-157. The description is as above. Particulars: Compound 1 in combination with second active agent, mean self-cross + 2σ threshold 4.68. The test is classed as cell-based.
From the text: as §2, §3, §4

For the molecule `O=C(NOCC1CC1)c1ccc(F)c(F)c1Nc1ccc(I)cc1Cl` [CI-1040], the “% Caspase activation Mean (n = 3)” value came to 98.6% in [1] (0.1 μM); 104.1% in [1] (0.3 μM); 96.6% in test [1] (1 μM); 99.3% in test [1] (3 μM); 103.9% in [1] (10 μM); 124.2% in [1] (30 μM).

For `CO[C@H]1CC[C@H](N2C(=O)CNc3ncc(-c4ccc(C(C)(C)O)nc4)nc32)CC1` [Compound 2, 7-(6-(2-hydroxypropan-2-yl)pyridin-3-yl)-1-((1r,4r)-4-methoxycyclohexyl)-3,4-dihydropyrazino-[2,3-b]pyrazin-2(1H)-one], the Synergism result in test [2] is on record as “Synergism was observed”. The “Chalice Calculated Synergy Scores, Averages” value in [3] is given as 4.02; in test [4] it was 5.98; in [5] it was 11.58; in test [6] it was 2.07; in test [7], 7.03; in test [8], 6.14. In addition, the “% Caspase activation Mean (n = 3)” value in test [1] (0.1 μM) came out at 69.9%; in test [1] (0.3 μM), 66.4%; in test [1] (1 μM) it was 67.7%; in test [1] (3 μM) it was 77.7%; in test [1] (10 μM) it was 80%; in test [1] (30 μM), 85.5%.

As usually defined, the GI50 is the concentration that inhibits growth by half. Take `CCN1C(=O)CNc2ncc(-c3ccc(-c4nc[nH]n4)nc3C)nc21` [Compound 1, 1-ethyl-7-(2-methyl-6-(1H-1,2,4-triazol-3-yl)pyridin-3-yl)-3,4-dihydropyrazino[2,3-b]pyrazin-2(1H)-one]: the Synergism result in test [2] is on record as “Synergism was observed”. Also, the GI50 in test [9] was determined as 140 nM. Moreover, the “Chalice Calculated Synergy Scores, Averages” value is reported as 8.74 in test [3]; 12.05 in [4]; 17.26 in test [5]; 7.37 in test [6]; 16.37 in test [7]; 9.59 in test [8].

Turning to `COc1c(C)cnc(Cn2cnc3c(Cl)nc(N)nc32)c1C` [BIIB021], the Synergy score was found to be 0.45 in test [10]; 1.11 in test [11]; 3.71 in test [12]; 1.22 in [13]; 5.46 in test [14]; 0.33 in test [15]. In addition, the Synergy score in test [16] was 1.44; in test [17] it was 4.02; in test [18], 2.83; in [19] it was 9.58; in test [20], 0.15; in [21], 0.12. For the same molecule, the Synergy score is listed as 1.01 in [22], 1.19 in test [23] and 3.94 in test [24].

Take `C[C@]12CC[C@@H]3c4ccc(O)cc4C[C@@H](CCCCCCCCC[S+]([O-])CCCC(F)(F)C(F)(F)F)[C@H]3[C@@H]1CC[C@@H]2O` (stereo partly drawn) [Fulvestrant]: the Synergy score was 2.16 in test [10]; 5.15 in test [11]; 1.39 in test [12]; 0.77 in [13]; 0.41 in [14]; 0.74 in test [15]. Also, the Synergy score is recorded as 1.98 in [16]; 1.09 in test [17]; 1.37 in [18]; 1.50 in [19]; 2.45 in test [20]; 1.25 in test [21]. In addition, the Synergy score in test [22] is recorded as 1.30; in [23], 2.10; in [24] it was 0.42.

For `NC1(c2ccc(-c3nc4ccn5c(=O)[nH]nc5c4cc3-c3ccccc3)cc2)CCC1` [MK-2206], the Synergy score in test [10] stood at 10.60; in [11] it was 2.02; in [12], 13.10; in [13], 3.39; in test [14], 10.80; in test [15], 5.55. Moreover, the Synergy score turned out to be 11.40 in test [16]; 4.09 in [17]; 8.24 in [18]; 13.30 in test [19]; 12.10 in test [20]; 9.17 in test [21]. Also, the Synergy score in test [22] worked out at 7.33; in [23], 12.60; in [24], 9.00.
